Experimental data reported in the NIST ThermoML archive (doi:10.1016/j.jct.2014.10.023).

Assay: excess molar enthalpy (molar enthalpy of mixing); xn = mol fraction of the nth substance listed
Settings: 101 kPa, Liquid, Calvet calorimetry

[Li] [lithium] + [Ag]
Settings	excess molar enthalpy [kcal/mol]
873 K, x1 = 0.5664	-2.79
873 K, x1 = 0.5985	-2.69
873 K, x1 = 0.6338	-2.57
873 K, x1 = 0.6719	-2.4
873 K, x1 = 0.7007	-2.25
873 K, x1 = 0.7274	-2.09
873 K, x1 = 0.7617	-1.87
873 K, x1 = 0.7867	-1.7
873 K, x1 = 0.8408	-1.22
873 K, x1 = 0.8972	-0.767
873 K, x1 = 0.932	-0.474
873 K, x1 = 0.9771	-0.0813
1253 K, x1 = 0.1002	-0.73
1253 K, x1 = 0.1043	-0.754
1253 K, x1 = 0.1097	-0.799
1253 K, x1 = 0.1152	-0.853
1253 K, x1 = 0.1205	-0.897
1253 K, x1 = 0.1287	-0.956
1253 K, x1 = 0.1355	-1.01
1253 K, x1 = 0.1461	-1.1
1253 K, x1 = 0.1583	-1.21
1253 K, x1 = 0.1698	-1.35
1253 K, x1 = 0.1884	-1.51
1253 K, x1 = 0.1995	-1.6
1253 K, x1 = 0.2187	-1.73
1253 K, x1 = 0.264	-1.85
1253 K, x1 = 0.2711	-1.88
1253 K, x1 = 0.2851	-1.95
1253 K, x1 = 0.2976	-2.02
1253 K, x1 = 0.3124	-2.12
1253 K, x1 = 0.3281	-2.2
1253 K, x1 = 0.3503	-2.29
1253 K, x1 = 0.3774	-2.42
1253 K, x1 = 0.4086	-2.52
1253 K, x1 = 0.4371	-2.61
1253 K, x1 = 0.4847	-2.72
1253 K, x1 = 0.5245	-2.75
